From US11046668B2, “Small molecule antimicrobials” (Ohio State Innovation Foundation, priority 2016, dated 2021)
≈ marks a conversion by molar mass, not a printed value. Entries after “also recorded” stand apart in the source; their conditions may differ. Marks after values point to notes of the source that are not given here.

Legend:
[1] = system: C. jejuni; test: Log reduction test in tapioca film; details: for % Efficacy loss due to incorporation / Log10 CFU/ml reduction: C. jejuni; for % Efficacy loss due to incorporation: film vs broth; for Log10 CFU/ml reduction / C. jejuni count after treatment: in tapioca film, JA-144 6.25 ppm, TH-4 25 ppm, TH-8 50 ppm, 24 hours; for Log10 CFU/ml reduction: vs control
Procedure: (§1) The films prepared above were cut into small pieces that were capable of fitting into 1.5 ml micro-tubes. The weight of each film sample ranged from 5 to 15 mg. The micro-tubes were then exposed to UV light for 18 hours to eliminate possible contamination that may have occurred during the cutting and transferring process. […] After adding the proper amount of bacterial culture, the micro-tubes were placed in an incubator aerobically at 37° C. (for E. coli and L. innocua), or microaerobically at 42° C. (for C. jejuni and C. coli), for 24 hours, respectively.
(§2) After 24 hours incubation, the broth was centrifuged at 4,000 rpm for 5 min at 23° C. with appropriate aseptic precautions. The supernatant was discarded and the pellet resuspended using 1 ml of sterile peptone water and centrifuged again at 4000 rpm for 5 min. This step was repeated until the supernatant was clear. The pellets were then suspended in 1 ml sterile peptone water, and seven consecutive 10-fold dilutions were made to obtain inoculums ready for the plate counts. For the experimental groups with the small molecule compounds, 0.1 ml of diluted broth (dilution of 10^−2; 10^−4; 10^−6) were inoculated on to the plates. For the control groups, 0.1 ml of diluted broth (dilution of 10^−6 and 10^−7) was added to the plates. They were then incubated at 37° C. aerobically (for E. coli and L. innocua), or 42° C. microaerobically (for C. jejuni and C. coli) for 24 hours, and then colony numbers on each plate counted using a Darkfield Colony Counter manufactured by American Optical (Buffalo, N.Y.).

[2] = system: pathogenic E.coli, Listeria strain, C. jejuni and E. coli bacteria; test: Efficacy of JA-144 when incorporated in edible films (Example 1); assay type: cell-based
Text: As described in primary HTS, we screened re-synthesized two compounds for C. jejuni 81-176 growth inhibition. Both re-synthesized compounds effective inhibiting Campylobacter growth at tested concentrations. […] Where positive control (P CNTL includes Campylobacter culture with known antibiotics and negative control (N CNTL) include Camylobacter culture alone. See FIG. 13. Testing the efficacy of JA-144 when incorporated in edible films against pathogenic E.coli, Listeria strain, C. jejuni and E. coli bacteria. The control (CNTL) include edible film alone. JA-144 was effective in reducing most of the pathogenic bacteria by 4 log. See FIG. 14. A cytotoxicity assay for potent semi-synthetic derivative compounds were performed using normal colon cells and sulfohodamine B methods. See FIG. 15. A cytotoxicity assay was performed for two re-synthesized compounds using normal colon cells and sulforhodamine B methods.

[3] = system: C. jejuni; test: Log reduction test in broth; details: JA-144 6.25 ppm, TH-4 25 ppm, TH-8 50 ppm, 24 hours; for Log10 CFU/ml reduction: C. jejuni in broth, vs control; for C. jejuni count after treatment: in broth
Procedure: as §2

[4] = system: L. innocua; test: Bacterial growth curves (optical density); details: OD over 24 hours at 37° C.
Procedure: (§3) For E. coli K12 and L. innocua, the bacterial incubations were followed by measurements of the Optical Density (OD) values every 15 minutes in an automated Sunrise™ Tecan Spectrophotometer (Tecan Co.) during an incubation period of 24 hours at 37° C. For C. jejuni, the incubation experimental design was similar, but the measurement period occurred every 4 hours. From the data collected, comparisons were made with the control samples and statistical analyses were used to determine the significance between the means for all observations.

[5] = system: E. coli K12; test: Log reduction test in tapioca film
Procedure: as §1, §2

[6] = system: L. innocua; test: Log reduction test in tapioca film
Procedure: as §1, §2

[7] = system: L. innocua; test: Log reduction test in broth; details: 100 ppm JA-144
Procedure: as §2

[8] = system: C. coli; test: MIC test in 96 well plate with TTC; assay type: cell-based; details: Campylobacter coli, 42° C. microaerobically, 24 hours
[9] = system: E. coli K12; test: Bacterial growth curves (optical density); details: OD over 24 hours at 37° C.
Procedure: as §3

[10] = system: Salmonella, E. coli, Listeria and also several commensal and/or probiotic bacteria; test: Specificity against diverse foodborne pathogens and commensal/probiotic bacteria; assay type: cell-based; details: tested for specificity against foodborne pathogens and commensal/probiotic bacteria
[11] = system: L. innocua; test: MIC test in 96 well plate with TTC; assay type: cell-based, Listeria innocua; details: for antimicrobial activity: starting concentration 50 ppm
[12] = system: C. coli; test: Log reduction test in broth; details: JA-144 3.125 ppm, TH-4 12.5 ppm, TH-8 50 ppm, 24 hours; for Log10 CFU/ml reduction: C. coli in broth, vs control; for C. coli count after treatment: in broth
Procedure: as §2

[13] = system: C. jejuni; test: MIC test in 96 well plate with TTC; assay type: cell-based; details: Campylobacter jejuni, 42° C. microaerobically, 24 hours
[14] = system: E. coli K12; test: Log reduction test in broth; details: 100 ppm JA-144
Procedure: as §2

[15] = system: colon cells (CCD-112CoN, ATCC); test: Cytotoxicity assay on normal colon cells (sulforhodamine B); assay type: cell-based, human; details: for survival rates of colon cells: at 200 μM; for highest concentrations of each compound to cause lysis of human colon cells, converted to ppm: 200 μM converted to ppm; for toxicity against the colon cells: CCD-112CoN, ATCC, data not shown
[16] = system: E. coli K12; test: MIC test in 96 well plate with TTC; assay type: cell-based; details: for antimicrobial activity: starting concentration 50 ppm
[17] = system: C. jejuni; test: Bacterial growth curves (optical density); details: OD every 4 hours
Procedure: as §3

[18] = system: C. coli; test: Log reduction test in tapioca film; details: for % Efficacy loss due to incorporation / Log10 CFU/ml reduction: C. coli; for % Efficacy loss due to incorporation: film vs broth; for Log10 CFU/ml reduction / C. coli count after treatment: in tapioca film, JA-144 3.125 ppm, TH-4 12.5 ppm, TH-8 50 ppm, 24 hours; for Log10 CFU/ml reduction: vs control
Procedure: as §1, §2

[19] = system: C. jejuni colonization; test: In vivo effect on C. jejuni colonization in broiler chickens; details: administered orally, in 30% DMSO; three week old broiler chickens
[20] = Solubility in water; assay type: physicochemical
[21] = in tapioca film, 1% w/w JA-144, 24 hours incubation

OCC1(Cc2ccccc2)CCCN(Cc2cc3ccccc3[nH]2)C1 (stereo not shown) [JA-144]
% Efficacy loss due to incorporation [1]: 0.25%
Log10 CFU/ml reduction [1]: 6.36 Log10 CFU/ml
C. jejuni count after treatment [1]: 2.86 ± 0.13^a Log10 CFU/ml
reduction of most of the pathogenic bacteria [2]: 4 log
Log10 CFU/ml reduction [3]: 6.35 Log10 CFU/ml
C. jejuni count after treatment [3]: 2.90 ± 0.09^a Log10 CFU/ml
concentration that completely inhibited growth (growth curve) [4]: 100 ppm
Percent efficacy loss due to incorporation ([5]; E. coli K12, film vs broth): 43.48%
Log10 CFU/ml reduction ([5]; E. coli K12, tapioca film, 1% w/w JA-144, 24 hours, vs control): 3.31 Log10 CFU/ml
E. coli K12 count after treatment [5, 21]: 5.58 ± 0.08^a Log10 CFU/ml
Percent efficacy loss due to incorporation ([6]; L. innocua, film vs broth): 36.42%
Log10 CFU/ml reduction ([6]; L. innocua, tapioca film, 1% w/w JA-144, 24 hours, vs control): 3.51 Log10 CFU/ml
L. innocua count after treatment [6, 21]: 5.22 ± 0.07^b Log10 CFU/ml
Log10 CFU/ml reduction ([7]; L. innocua in broth, 24 hours, vs control): 5.52 Log10 CFU/ml
L. innocua count after treatment ([7]; in broth, 24 hours incubation): 3.14 ± 0.11^b Log10 CFU/ml
MIC [8]: 3.12 to 6.25 µg/mL (≈ 9.34 to 18.7 µM)
concentration that completely inhibited growth (growth curve) [9]: 100 ppm
spectrum of antibacterial activity [10]: broad spectrum effect on other bacteria including E. coli and Listeria
MIC ([11]; Listeria innocua, 37° C. aerobically, 24 hours): 50 to 100 µg/mL (≈ 149 to 299 µM)
Log10 CFU/ml reduction [12]: 6.27 Log10 CFU/ml
C. coli count after treatment [12]: 2.93 ± 0.26^a Log10 CFU/ml
MIC [13]: 3.12 to 6.25 µg/mL (≈ 9.34 to 18.7 µM)
Log10 CFU/ml reduction ([14]; E. coli K12 in broth, 24 hours, vs control): 5.86 Log10 CFU/ml
E. coli K12 count after treatment ([14]; in broth, 24 hours incubation): 2.96 ± 0.30^a Log10 CFU/ml
survival rates of colon cells [15]: 99%
highest concentrations of each compound to cause lysis of human colon cells [15]: 200 µM
highest concentrations of each compound to cause lysis of human colon cells, converted to ppm [15]: 66.9 ppm
MIC ([16]; Escherichia coli, 37° C. aerobically, 24 hours): 100 µg/mL (≈ 299 µM)
concentration that completely inhibited growth (growth curve) [17]: 6.25 ppm
% Efficacy loss due to incorporation [18]: 2.03%
Log10 CFU/ml reduction [18]: 6.14 Log10 CFU/ml
C. coli count after treatment [18]: 2.93 ± 0.16^a Log10 CFU/ml

O=S(=O)(NCc1ccc(F)cc1)c1ccc(Cl)s1 [TH-4]
% Efficacy loss due to incorporation [1]: 6.09%
Log10 CFU/ml reduction [1]: 5.99 Log10 CFU/ml
C. jejuni count after treatment [1]: 3.16 ± 0.14^a Log10 CFU/ml
Log10 CFU/ml reduction [3]: 6.37 Log10 CFU/ml
C. jejuni count after treatment [3]: 2.78 ± 0.09^a Log10 CFU/ml
in vivo results in a chicken model [19]: promising in vivo results
solubility in water [20]: not readiliy soluble in water
MIC [8]: 12.5 to 25 µg/mL (≈ 40.9 to 81.8 µM)
spectrum of antibacterial activity [10]: specific to C. jejuni and C. coli
antimicrobial activity [11]: ineffective; also recorded: no antimicrobialactivity
Log10 CFU/ml reduction [12]: 6.16 Log10 CFU/ml
C. coli count after treatment [12]: 3.21 ± 0.12^a Log10 CFU/ml
MIC [13]: 12.5 to 25 µg/mL (≈ 40.9 to 81.8 µM)
toxicity against the colon cells [15]: lacked toxicity
survival rates of colon cells [15]: 60%
highest concentrations of each compound to cause lysis of human colon cells [15]: 200 µM
highest concentrations of each compound to cause lysis of human colon cells, converted to ppm [15]: 61.1 ppm
antimicrobial activity [16]: ineffective; also recorded: no antimicrobialactivity
concentration that completely inhibited growth (growth curve) [17]: 25 ppm
% Efficacy loss due to incorporation [18]: 29.02%
Log10 CFU/ml reduction [18]: 4.37 Log10 CFU/ml
C. coli count after treatment [18]: 5.03 ± 0.07^a Log10 CFU/ml

Cc1ccccc1CNS(=O)(=O)c1ccc(Cl)s1 [TH-8]
% Efficacy loss due to incorporation [1]: 25.52%
Log10 CFU/ml reduction [1]: 4.01 Log10 CFU/ml
C. jejuni count after treatment [1]: 5.10 ± 0.07^a Log10 CFU/ml
Log10 CFU/ml reduction [3]: 5.39 Log10 CFU/ml
C. jejuni count after treatment [3]: 3.64 ± 0.05^a Log10 CFU/ml
in vivo results in a chicken model [19]: promising in vivo results
solubility in water [20]: not readiliy soluble in water
MIC [8]: 25 to 50 µg/mL (≈ 82.8 to 166 µM)
spectrum of antibacterial activity [10]: specific to C. jejuni and C. coli
antimicrobial activity [11]: ineffective; also recorded: did not show antimicrobialactivity
Log10 CFU/ml reduction [12]: 5.51 Log10 CFU/ml
C. coli count after treatment [12]: 4.11 ± 0.05^a Log10 CFU/ml
MIC [13]: 25 to 50 µg/mL (≈ 82.8 to 166 µM)
toxicity against the colon cells [15]: lacked toxicity
survival rates of colon cells [15]: 79%
highest concentrations of each compound to cause lysis of human colon cells [15]: 200 µM
highest concentrations of each compound to cause lysis of human colon cells, converted to ppm [15]: 60.4 ppm
antimicrobial activity [16]: ineffective; also recorded: did not show antimicrobialactivity
concentration that completely inhibited growth (growth curve) [17]: 50 ppm
% Efficacy loss due to incorporation [18]: 48.01%
Log10 CFU/ml reduction [18]: 2.87 Log10 CFU/ml
C. coli count after treatment [18]: 6.83 ± 0.06^a Log10 CFU/ml
